In ChEMBL document CHEMBL1149739, “Sarcochromenol sulfates A-C and sarcohydroquinone sulfates A-C, new natural products from the sponge Sarcotragus spinulosus” (J Nat Prod, 1992):
pIC50: −log10 of the molar value. Where a name gives a salt, the structure may show the parent alone.

Assay: Inhibition of rat brain Na(+)/K(+) ATPase

pIC50 | Structure (SMILES)
5.85 | CC(C)=CCC/C(C)=C/CC/C(C)=C/CC/C(C)=C/CC/C(C)=C/CC/C(C)=C/CC/C(C)=C/Cc1cc(OS(=O)(=O)O)ccc1OS(=O)(=O)O [DISODIUM SARCOHYDROQUINONE SULFATE B]
5.80 | CC(C)=CCC/C(C)=C/CC/C(C)=C/CC/C(C)=C/CC/C(C)=C/CCC1(C)C=Cc2cc(OS(=O)(=O)O)ccc2O1 (configuration not stated) [SODIUM SARCOCHROMENOL SULFATE A]
